In ChEMBL document CHEMBL2203257 (Bioorg Med Chem Lett, 2012):

Assays:
[1] = target: Calcium/calmodulin-dependent protein kinase kinase 1 (Homo sapiens, UniProt Q8N5S9); assay: Inhibition of CAMKK1
[2] = target: Voltage-gated inwardly rectifying potassium channel KCNH2 (Homo sapiens, UniProt Q12809); assay: Inhibition of human ERG at >250 uM by patch clamp method
[3] = target: Serine/threonine-protein kinase Nek2 (Homo sapiens, UniProt P51955); assay: Inhibition of NEK2
[4] = target: Mitogen-activated protein kinase kinase kinase 2 (Homo sapiens, UniProt Q9Y2U5); assay: Inhibition of MAP3K2
[5] = target: Casein kinase II subunit alpha' (Homo sapiens, UniProt P19784); assay: Inhibition of CK2a2
[6] = target: Serine/threonine-protein kinase SIK2 (Homo sapiens, UniProt Q9H0K1); assay: Inhibition of SIK2
[7] = target: Mitogen-activated protein kinase kinase kinase 3 (Homo sapiens, UniProt Q99759); assay: Inhibition of MAP3K3
[8] = target: Mitogen-activated protein kinase kinase kinase kinase 1 (Homo sapiens, UniProt Q92918); assay: Inhibition of MAP4K1
[9] = target: Dual specificity protein kinase CLK1 (Homo sapiens, UniProt P49759); assay: Inhibition of CLK1
[10] = target: Glycogen synthase kinase-3 beta (Homo sapiens, UniProt P49841); assay: Inhibition of GSK3B
[11] = target: Activin receptor type-2A (Homo sapiens, UniProt P27037); assay: Inhibition of ACVR2A
[12] = target: Bromodomain-containing protein 3 (Homo sapiens, UniProt Q15059); assay: Inhibition of BRD3
[13] = target: Mitogen-activated protein kinase 9 (Homo sapiens) (UniProt P45984); assay: Inhibition of MAPK9
[14] = target: Serine/threonine-protein kinase ATR (Homo sapiens, UniProt Q13535); assay: Inhibition of ATR
[15] = target: Phosphatidylinositol 4,5-bisphosphate 3-kinase catalytic subunit beta isoform (Homo sapiens, UniProt P42338); assay: Inhibition of PIK3Cb
[16] = target: Phosphatidylinositol 4,5-bisphosphate 3-kinase catalytic subunit alpha isoform (Homo sapiens, UniProt P42336); assay: Inhibition of PIK3Ca
[17] = target: Tyrosine-protein kinase Fer (Homo sapiens, UniProt P16591); assay: Inhibition of FER
[18] = target: Mitogen-activated protein kinase kinase kinase 20 (Homo sapiens, UniProt Q9NYL2); assay: Inhibition of ZAK
[19] = target: MAP/microtubule affinity-regulating kinase 4 (Homo sapiens, UniProt Q96L34); assay: Inhibition of MARK4
[20] = Cmax in mouse at 10 mg/kg, po BID; type: ADME, organism-based; design: dose 10 mg/kg, route oral; settings: in vivo
[21] = Oral bioavailability in Wistar rat at 5 mg/kg; 1 mg/kg, iv; settings: in vivo
[22] = target: Serine/threonine-protein kinase NLK (Homo sapiens, UniProt Q9UBE8); assay: Inhibition of NLK
[23] = target: Tyrosine-protein kinase FRK (Homo sapiens, UniProt P42685); assay: Inhibition of FRK
[24] = target: Non-receptor tyrosine-protein kinase TYK2 (Homo sapiens, UniProt P29597); assay: Inhibition of TYK2
[25] = target: Eukaryotic translation initiation factor 2-alpha kinase 1 (Homo sapiens, UniProt Q9BQI3); assay: Inhibition of EIF2AK1
[26] = target: Bromodomain-containing protein 2 (Homo sapiens, UniProt P25440); assay: Inhibition of BRD2
[27] = target: Serine/threonine-protein kinase D2 (Homo sapiens, UniProt Q9BZL6); assay: Inhibition of PRKD2
[28] = target: Tyrosine-protein kinase JAK1 (Homo sapiens, UniProt P23458); assay: Inhibition of JAK1
[29] = target: 5'-AMP-activated protein kinase catalytic subunit alpha-1 (Homo sapiens, UniProt Q13131); assay: Inhibition of PRKAA1
[30] = target: Dual specificity protein kinase CLK2 (Homo sapiens, UniProt P49760); assay: Inhibition of CLK2
[31] = test system: Mus musculus; assay: Antiinflammatory activity in mouse air pouch model assessed as effect on IL-8-induced migration of granulocytes into air pouch at 10 mg/kg, po; type: functional
[32] = target: Epidermal growth factor receptor (Homo sapiens, UniProt P00533); assay: Inhibition of EGFR
[33] = target: Receptor-interacting serine/threonine-protein kinase 3 (Homo sapiens, UniProt Q9Y572); assay: Inhibition of RIPK3
[34] = target: Serine/threonine-protein kinase PAK 4 (Homo sapiens, UniProt O96013); assay: Inhibition of PAK4
[35] = target: Tyrosine-protein kinase Yes (Homo sapiens, UniProt P07947); assay: Inhibition of YES1
[36] = target: Phosphatidylinositol 4,5-bisphosphate 3-kinase catalytic subunit delta isoform/gamma isoform (Homo sapiens, UniProt P48736+O00329); assay: Inhibition of PI3Kgamma/delta by neutrophil migration assay
[37] = target: Cyclin-dependent kinase 1 (Homo sapiens, UniProt P06493); assay: Inhibition of CDC2
[38] = target: 3-phosphoinositide-dependent protein kinase 1 (Homo sapiens, UniProt O15530); assay: Inhibition of PDPK1
[39] = target: Calcium/calmodulin-dependent protein kinase type 1D (Homo sapiens, UniProt Q8IU85); assay: Inhibition of CAMK1D
[40] = test system: Mus musculus; assay: Antiinflammatory activity in mouse air pouch model assessed as effect on IL-8-induced migration of granulocytes into air pouch at 1 mg/kg, po; type: functional
[41] = target: Serine/threonine-protein kinase PLK4 (Homo sapiens, UniProt O00444); assay: Inhibition of PLK4
[42] = target: Aurora kinase B (Homo sapiens, UniProt Q96GD4); assay: Inhibition of AURKB
[43] = target: Phosphorylase b kinase gamma catalytic chain, liver/testis isoform (Homo sapiens, UniProt P15735); assay: Inhibition of PHKG2
[44] = target: Serine/threonine-protein kinase TAO1 (Homo sapiens, UniProt Q7L7X3); assay: Inhibition of TAOK1
[45] = target: Casein kinase I isoform alpha (Homo sapiens, UniProt P48729); assay: Inhibition of CSNK1A1
[46] = target: Glycogen synthase kinase-3 alpha (Homo sapiens, UniProt P49840); assay: Inhibition of GSK3A
[47] = target: Ephrin type-B receptor 6 (Homo sapiens, UniProt O15197); assay: Inhibition of EPHB6
[48] = target: Proto-oncogene tyrosine-protein kinase receptor Ret (Homo sapiens, UniProt P07949); assay: Inhibition of RET
[49] = test system: Mus musculus; assay: Antiinflammatory activity in mouse air pouch model assessed as effect on IL-8-induced migration of granulocytes into air pouch at 3 mg/kg, po; type: functional
[50] = target: Cytochrome P450 2C9 (Homo sapiens, UniProt P11712); assay: Inhibition of CYP2C9 at >20 uM; type: ADME
[51] = test system: Mus musculus; assay: Antiarthritic activity against collagen-induced arthritis mouse model assessed as mean clinical arthritis score with AUC calculation in at 10 mg/kg, po BID for 14 days; type: functional
[52] = target: Serine/threonine-protein kinase 16 (Homo sapiens, UniProt O75716); assay: Inhibition of STK16

Sequence of Calcium/calmodulin-dependent protein kinase type 1D (Q8IU85 whole entry): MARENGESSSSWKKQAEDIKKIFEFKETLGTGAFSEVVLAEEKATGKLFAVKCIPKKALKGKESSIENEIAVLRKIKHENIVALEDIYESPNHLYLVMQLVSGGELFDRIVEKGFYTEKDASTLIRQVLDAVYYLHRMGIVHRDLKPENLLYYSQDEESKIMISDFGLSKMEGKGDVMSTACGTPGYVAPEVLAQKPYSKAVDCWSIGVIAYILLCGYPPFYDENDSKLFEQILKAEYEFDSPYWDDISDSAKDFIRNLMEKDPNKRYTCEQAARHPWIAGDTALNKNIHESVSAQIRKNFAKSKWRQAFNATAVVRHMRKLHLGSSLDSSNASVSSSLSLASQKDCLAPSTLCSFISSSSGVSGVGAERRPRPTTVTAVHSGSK
Sequence of Serine/threonine-protein kinase Nek2 (P51955 whole entry): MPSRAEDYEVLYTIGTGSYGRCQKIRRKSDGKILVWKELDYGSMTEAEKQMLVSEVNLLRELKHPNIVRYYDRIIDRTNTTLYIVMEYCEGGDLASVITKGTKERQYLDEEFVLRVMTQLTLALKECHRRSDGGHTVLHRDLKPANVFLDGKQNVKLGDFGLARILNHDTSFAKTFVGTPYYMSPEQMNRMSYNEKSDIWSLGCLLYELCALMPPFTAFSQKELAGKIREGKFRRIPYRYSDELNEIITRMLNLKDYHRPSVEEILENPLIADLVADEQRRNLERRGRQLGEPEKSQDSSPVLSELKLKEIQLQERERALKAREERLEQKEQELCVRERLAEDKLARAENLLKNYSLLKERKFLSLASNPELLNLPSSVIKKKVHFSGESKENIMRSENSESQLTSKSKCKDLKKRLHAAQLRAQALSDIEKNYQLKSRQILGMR
Sequence of Phosphatidylinositol 4,5-bisphosphate 3-kinase catalytic subunit beta isoform (P42338 whole entry, canonical isoform): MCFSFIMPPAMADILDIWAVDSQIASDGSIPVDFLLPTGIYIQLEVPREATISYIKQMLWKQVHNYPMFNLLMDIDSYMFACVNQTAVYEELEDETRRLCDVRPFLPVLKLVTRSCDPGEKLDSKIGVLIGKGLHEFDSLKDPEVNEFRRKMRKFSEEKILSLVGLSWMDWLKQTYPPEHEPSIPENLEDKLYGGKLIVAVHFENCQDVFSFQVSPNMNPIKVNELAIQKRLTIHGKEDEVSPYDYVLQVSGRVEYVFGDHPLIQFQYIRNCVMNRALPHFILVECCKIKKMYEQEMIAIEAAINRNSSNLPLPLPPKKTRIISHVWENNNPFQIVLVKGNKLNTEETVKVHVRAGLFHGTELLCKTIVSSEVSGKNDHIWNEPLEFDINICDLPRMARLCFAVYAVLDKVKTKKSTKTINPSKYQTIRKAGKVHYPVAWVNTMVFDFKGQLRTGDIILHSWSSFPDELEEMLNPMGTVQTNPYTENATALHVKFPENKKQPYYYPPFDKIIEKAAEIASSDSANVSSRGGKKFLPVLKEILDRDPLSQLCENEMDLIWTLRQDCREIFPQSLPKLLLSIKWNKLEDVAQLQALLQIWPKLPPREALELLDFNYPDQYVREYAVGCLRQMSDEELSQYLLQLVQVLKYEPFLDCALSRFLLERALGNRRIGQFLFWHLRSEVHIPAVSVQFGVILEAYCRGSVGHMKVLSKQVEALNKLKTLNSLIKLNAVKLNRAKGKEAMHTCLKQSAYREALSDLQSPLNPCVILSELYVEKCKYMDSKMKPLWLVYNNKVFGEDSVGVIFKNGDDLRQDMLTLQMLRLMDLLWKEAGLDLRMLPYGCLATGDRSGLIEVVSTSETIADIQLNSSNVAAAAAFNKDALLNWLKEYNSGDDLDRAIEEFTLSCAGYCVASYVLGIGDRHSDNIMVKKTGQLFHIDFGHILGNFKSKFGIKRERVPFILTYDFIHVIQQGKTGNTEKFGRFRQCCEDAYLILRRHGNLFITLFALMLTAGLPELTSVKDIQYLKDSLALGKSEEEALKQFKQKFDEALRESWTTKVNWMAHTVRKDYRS
Sequence of Tyrosine-protein kinase FRK (P42685 whole entry): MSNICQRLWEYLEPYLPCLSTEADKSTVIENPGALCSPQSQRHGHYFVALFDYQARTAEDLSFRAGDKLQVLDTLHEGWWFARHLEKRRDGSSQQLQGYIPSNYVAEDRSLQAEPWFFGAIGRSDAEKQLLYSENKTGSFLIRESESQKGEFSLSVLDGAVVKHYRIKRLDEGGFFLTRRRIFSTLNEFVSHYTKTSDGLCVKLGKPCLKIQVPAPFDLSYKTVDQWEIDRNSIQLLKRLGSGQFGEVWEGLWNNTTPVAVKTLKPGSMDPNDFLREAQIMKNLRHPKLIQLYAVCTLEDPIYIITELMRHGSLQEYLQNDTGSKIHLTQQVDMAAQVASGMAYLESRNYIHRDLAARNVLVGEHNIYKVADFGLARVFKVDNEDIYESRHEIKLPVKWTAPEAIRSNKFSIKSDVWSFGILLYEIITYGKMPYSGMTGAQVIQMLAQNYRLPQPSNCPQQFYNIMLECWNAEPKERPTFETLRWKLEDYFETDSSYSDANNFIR
Sequence of Serine/threonine-protein kinase ATR (Q13535 whole entry, canonical isoform): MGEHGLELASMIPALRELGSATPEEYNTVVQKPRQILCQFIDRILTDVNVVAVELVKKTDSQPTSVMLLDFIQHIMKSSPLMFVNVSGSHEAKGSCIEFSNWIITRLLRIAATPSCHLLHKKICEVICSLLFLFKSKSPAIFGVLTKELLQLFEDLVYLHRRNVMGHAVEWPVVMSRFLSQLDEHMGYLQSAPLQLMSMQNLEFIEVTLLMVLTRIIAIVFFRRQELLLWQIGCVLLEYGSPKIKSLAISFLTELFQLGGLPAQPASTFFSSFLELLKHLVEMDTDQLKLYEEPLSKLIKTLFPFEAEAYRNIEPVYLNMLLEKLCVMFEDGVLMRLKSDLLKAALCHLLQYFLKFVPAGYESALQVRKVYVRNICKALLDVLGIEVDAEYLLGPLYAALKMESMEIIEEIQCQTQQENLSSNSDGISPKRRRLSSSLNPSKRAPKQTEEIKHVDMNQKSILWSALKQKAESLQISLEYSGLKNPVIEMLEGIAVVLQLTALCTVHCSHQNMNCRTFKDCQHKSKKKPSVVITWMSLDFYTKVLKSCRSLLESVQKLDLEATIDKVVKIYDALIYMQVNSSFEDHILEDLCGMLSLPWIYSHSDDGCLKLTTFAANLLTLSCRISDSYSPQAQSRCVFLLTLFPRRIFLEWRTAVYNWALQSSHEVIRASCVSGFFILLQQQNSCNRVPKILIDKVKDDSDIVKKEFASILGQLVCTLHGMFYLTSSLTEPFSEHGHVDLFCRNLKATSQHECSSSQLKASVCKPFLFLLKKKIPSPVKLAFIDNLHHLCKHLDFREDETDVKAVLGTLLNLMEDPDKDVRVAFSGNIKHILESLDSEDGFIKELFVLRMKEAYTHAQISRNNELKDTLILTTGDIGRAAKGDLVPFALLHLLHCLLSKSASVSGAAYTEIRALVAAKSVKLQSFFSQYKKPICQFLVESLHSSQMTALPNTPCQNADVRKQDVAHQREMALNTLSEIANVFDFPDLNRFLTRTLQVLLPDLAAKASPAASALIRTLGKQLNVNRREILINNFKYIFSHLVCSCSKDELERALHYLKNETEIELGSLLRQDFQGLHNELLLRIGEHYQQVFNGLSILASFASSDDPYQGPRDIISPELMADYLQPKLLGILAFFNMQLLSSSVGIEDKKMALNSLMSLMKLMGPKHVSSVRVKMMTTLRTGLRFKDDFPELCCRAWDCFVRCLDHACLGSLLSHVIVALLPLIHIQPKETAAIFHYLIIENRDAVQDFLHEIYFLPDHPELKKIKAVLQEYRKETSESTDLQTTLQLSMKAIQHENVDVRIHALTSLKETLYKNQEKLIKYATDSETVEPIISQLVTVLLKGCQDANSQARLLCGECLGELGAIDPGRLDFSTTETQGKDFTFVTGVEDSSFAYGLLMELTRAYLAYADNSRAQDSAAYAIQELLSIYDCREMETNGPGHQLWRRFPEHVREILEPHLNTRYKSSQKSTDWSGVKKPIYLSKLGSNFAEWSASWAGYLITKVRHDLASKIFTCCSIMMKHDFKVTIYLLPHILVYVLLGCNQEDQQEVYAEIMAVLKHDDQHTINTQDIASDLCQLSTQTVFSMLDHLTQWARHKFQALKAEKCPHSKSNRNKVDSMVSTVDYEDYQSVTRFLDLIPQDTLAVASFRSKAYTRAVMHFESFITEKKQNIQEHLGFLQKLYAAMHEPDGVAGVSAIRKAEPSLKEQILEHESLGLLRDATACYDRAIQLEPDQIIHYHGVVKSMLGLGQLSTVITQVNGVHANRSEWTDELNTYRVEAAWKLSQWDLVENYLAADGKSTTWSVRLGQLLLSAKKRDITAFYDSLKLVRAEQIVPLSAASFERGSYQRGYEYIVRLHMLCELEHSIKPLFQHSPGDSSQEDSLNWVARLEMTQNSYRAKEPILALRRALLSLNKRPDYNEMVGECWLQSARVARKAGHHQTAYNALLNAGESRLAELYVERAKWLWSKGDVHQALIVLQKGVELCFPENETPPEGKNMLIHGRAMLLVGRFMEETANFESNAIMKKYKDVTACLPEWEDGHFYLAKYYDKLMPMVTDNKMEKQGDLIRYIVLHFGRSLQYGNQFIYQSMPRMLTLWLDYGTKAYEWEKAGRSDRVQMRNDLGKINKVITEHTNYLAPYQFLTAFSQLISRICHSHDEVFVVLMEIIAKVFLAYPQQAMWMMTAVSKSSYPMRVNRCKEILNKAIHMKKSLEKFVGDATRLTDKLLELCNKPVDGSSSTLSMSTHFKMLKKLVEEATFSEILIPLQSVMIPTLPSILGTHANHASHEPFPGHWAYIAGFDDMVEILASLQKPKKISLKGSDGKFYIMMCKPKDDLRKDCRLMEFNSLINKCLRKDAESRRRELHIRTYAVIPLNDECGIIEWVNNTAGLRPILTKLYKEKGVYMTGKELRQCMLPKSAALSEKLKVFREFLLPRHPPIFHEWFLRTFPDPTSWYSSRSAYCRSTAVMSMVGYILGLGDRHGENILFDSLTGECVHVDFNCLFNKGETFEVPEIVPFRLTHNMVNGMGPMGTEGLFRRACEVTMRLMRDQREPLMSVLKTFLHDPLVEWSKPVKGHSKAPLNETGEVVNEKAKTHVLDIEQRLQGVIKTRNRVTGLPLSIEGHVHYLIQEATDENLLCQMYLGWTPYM

## CC(C)(C)NS(=O)(=O)c1cncc(-c2ccn3nc(N)nc3c2)c1
[1]
  IC50: > 10 µM
[2]
  inhibition (INH): Not Active
[3]
  IC50: > 10 µM
[4]
  IC50: > 10 µM
[5]
  IC50: > 10 µM
[6]
  IC50: > 10 µM
[7]
  IC50: > 10 µM
[8]
  IC50: > 10 µM
[9]
  IC50: > 10 µM
[10]
  IC50: > 10 µM
[11]
  IC50: > 10 µM
[12]
  IC50: > 10 µM
[13]
  IC50: > 10 µM
[14]
  IC50: > 5.89 µM
[15]
  IC50: 0.49 µM
[16]
  IC50: 2.45 µM
[17]
  IC50: > 10 µM
[18]
  IC50: > 10 µM
[19]
  IC50: > 10 µM
[20]
  Cmax: 10.2 µM
[21]
  bioavailability: 81%
[22]
  IC50: > 10 µM
[23]
  IC50: > 10 µM
[24]
  IC50: > 10 µM
[25]
  IC50: > 10 µM
[26]
  IC50: > 10 µM
[27]
  IC50: > 10 µM
[28]
  IC50: 4.37 µM
[29]
  IC50: > 10 µM
[30]
  IC50: > 10 µM
[31]
  Activity: 73%
[32]
  IC50: > 10 µM
[33]
  IC50: > 10 µM
[34]
  IC50: 9.33 µM
[35]
  IC50: > 10 µM
[36]
  pIC50: 6.3
[37]
  IC50: > 10 µM
[38]
  IC50: > 10 µM
[39]
  IC50: > 10 µM
[40]
  Activity: 18%
[41]
  IC50: > 10 µM
[42]
  IC50: > 10 µM
[43]
  IC50: > 10 µM
[44]
  IC50: > 10 µM
[45]
  IC50: 9.12 µM
[46]
  IC50: > 10 µM
[47]
  IC50: > 10 µM
[48]
  IC50: > 10 µM
[49]
  Activity: 74%
[50]
  inhibition (INH): Active
[51]
  Activity: 42%
[52]
  IC50: > 10 µM
